Test: Antioxydation test (linoleic acid, thiocyanate method)
Details: 5 mg specimen
Experimental: In a 50 ml test tube with a screw cap, the following test solution was prepared. […]
This test solution was allowed to stand in a thermostatic bath at 50° C., while light was shut out. […]
12.125 ml of 75% ethanol and 0.125 ml of 30% ammonium thiocyanate were added to 0.125 ml of the test solution, and the solution was stirred and then allowed to stand for 3 minutes. Afterward, 0.125 ml of a 3.5% aqueous HCl solution including 0.02 N ferrous chloride was added thereto, and the solution was stirred and then allowed to stand for 3 minutes. Next, absorbance was measured at a wavelength of 500 nm. A cell length was 10 mm, and a control was prepared by replacing the test solution with water.

Vitamin E
Absorbance at 500 nm After 3 days (linoleic acid test solution at 50° C., light shut out, water 0.050): 0.026 | Absorbance at 500 nm After 5 days (linoleic acid test solution at 50° C., light shut out, water 0.103): 0.047 | Absorbance at 500 nm After 7 days (linoleic acid test solution at 50° C., light shut out, water 0.262): 0.070 | Absorbance at 500 nm After 0 day (linoleic acid test solution, before placing at 50° C., water 0.014): 0.015

— patent US5538731A, “Cosmetic” (Mikimoto Pharmaceutical Co., Ltd., priority 1992, dated 1996)
